The source of these data is patent US8440837B2, “2-substituted-ethynylthiazole derivatives and uses of same” (H. Lundbeck A/S, priority 2009, dated 2013).

What is called EC50 is the concentration that produces a half-maximal response.

SMILES strings stand for the structures.

The target in the first test is human metabotropic glutamate receptor 5 (hmGluR5) (UniProt P31424). Briefly: Calcium mobilization (FLIPR) assay, positive allosteric modulation of the EC20 glutamate response. It is filed as cell-based. Particulars: HEK 293 cells, EC20 glutamate response. The procedure: The cDNA for human metabotropic glutamate receptor 5 (hmGluR5) was a generous gift from S. Nakanishi (Kyoto University, Kyoto, Japan). The […] was stably expressed in a HEK 293 cell line and grown in Dulbecco's Modified Eagle Medium (DMEM) (Invitrogen, Carlsbad, Calif.) with supplements (10% bovine calf serum, 4 mM glutamine, 100 units/mL penicillin, 100 μg/mL streptomycin and […]) at 37° C., 5% CO2. Twenty-four hours prior to assay, cells were seeded into 384-well black wall microtiter plates coated with poly-D-lysine. Just prior to assay, media was aspirated and cells dye-loaded (25 μL/well) with 3 μM Fluo-4/0.01% pluronic acid in assay buffer (Hank's Balanced Saline Solution (HBSS)): 150 mM NaCl, 5 mM KCl, 1 mM CaCl2, 1 mM MgCl2, plus 20 mM N-2-Hydroxyethylpiperazine-N′-2-ethanesulfonic acid (HEPES), pH 7.4, 0.1% bovine serum albumin (BSA) and 2.5 mM probenicid) for 1 hour in 5% CO2 at 37° C. After excess dye was discarded, cells were washed in assay buffer and layered with a final volume equal to 30 μL/well. Basal fluorescence is monitored in a fluorometric imaging plate reader (FLIPR) (Molecular Devices, Sunnyvale, Calif.) with an excitation wavelength of 488 nm and an emission range of 500 to 560 nm. Laser excitation energy was adjusted so that basal fluorescence readings were approximately 10,000 relative fluorescent units. Cells were stimulated with an EC20 or an EC80 concentration of glutamate in the presence of a compound to be tested, both diluted in assay buffer, and relative fluorescent units were measured at defined intervals (exposure=0.6 sec) over a 3 min period at room temperature. Basal readings derived from negative controls were subtracted from all samples. Maximum change in fluorescence was calculated for each well. Concentration-response curves derived from the maximum change in fluorescence were analyzed by nonlinear regression (Hill equation).
A silent allosteric modulator (SAM) can be identified by using a combination of both the calcium mobilization assay data and the radioligand binding data. As used herein, the term “silent allosteric modulator” refers to a ligand that binds to an allosteric site of the receptor but has no measurable intrinsic efficacy.
For the compound `COc1ccc(C#Cc2ncc(C(=O)N3CCCCC3)s2)cc1` [Example 192, [2-(4-Methoxy-phenylethynyl)-thiazol-5-yl]-piperidin-1-yl-methasone], the “maximum modulation (Emax)” value was determined as 64%.
In the case of `CC(=O)c1cnc(C#Cc2ccccc2)s1` [Example 239, 1-(2-Phenylethynyl-thiazol-5-yl)-ethanone], the “maximum modulation (Emax)” value is on record as 170%.
As for `O=C(c1cnc(C#Cc2cccc(Cl)c2)s1)N1CCC(O)CC1` [Example 38, [2-(3-Chloro-phenylethynyl)-thiazol-5-yl]-(4-hydroxy-piperidin-1-yl)-methanone], the “maximum modulation (Emax)” value was determined as 42%.
In the case of `O=C(c1cnc(C#Cc2ccccc2Cl)s1)N1CCCCC1` [Example 68, [2-(2-Chloro-phenylethynyl)-thiazol-5-yl]-piperidin-1-yl-methanone], the “maximum modulation (Emax)” value was 100%.
As to `CN(C)Cc1cnc(C#Cc2ccccc2)s1` [Example 212, Dimethyl-(2-phenylethynyl-thiazol-5-ylmethyl)-amine], the “maximum modulation (Emax)” value amounted to 71%.
For `O=C1CCN(C(=O)c2cnc(C#Cc3ccccc3)s2)C1` [Example 140, 1-(2-Phenylethynyl-thiazole-5-carbonyl)-pyrrolidin-3-one], the “maximum modulation (Emax)” value worked out at 110%.
In the case of `CC1CCN(C(=O)c2cnc(C#Cc3ccccc3F)s2)CC1` [Example 63, [2-(2-Fluoro-phenylethynyl)-thiazol-5-yl]-(4-methyl-piperidin-1-yl)-methanone], the “maximum modulation (Emax)” value was 140%.
`N#Cc1cccc(C#Cc2ncc(C(=O)N3CCCCC3)s2)c1` [Example 196, 3-[5-(Piperidine-1-carbonyl)-thiazol-2-ylethynyl]-benzonitrile]: the “maximum modulation (Emax)” value worked out at 45%.
On the same count and under the same terms, to `O=C(c1cnc(C#CC2CCCCC2)s1)N1CCCCC1` [Example 200, (2-Cyclohexylethynyl-thiazol-5-yl)-piperidin-1-yl-methanone] belongs 160%.
For the compound `OC(c1cnc(C#Cc2ccccc2)s1)C1CCCCC1` (centres unmarked) [Example 235, Cyclohexyl-(2-phenylethynyl-thiazol-5-yl)-methanol], the “maximum modulation (Emax)” value was determined as 50%.
`COC1CN(Cc2cnc(C#Cc3ccccc3)s2)C1` [Example 214, 5-(3-Methoxy-azetidin-1-ylmethyl)-2-phenylethynyl-thiazole]: the “maximum modulation (Emax)” value is reported as 120%.
As for `C(#Cc1ncc(CN2CCCC2)s1)c1ccccc1` [Example 207, 2-Phenylethynyl-5-pyrrolidin-1-ylmethyl-thiazole], the “maximum modulation (Emax)” value is recorded as 110%.
Turning to `FC1(F)CCN(Cc2cnc(C#Cc3ccccc3)s2)CC1` [Example 223, 4,4-Difluoro-1-(2-phenylethynyl-thiazol-5-ylmethyl)-piperidine], the “maximum modulation (Emax)” value came to 110%.
For the compound `CC1(O)CCN(C(=O)c2cnc(C#Cc3ccccc3)s2)C1` (centres unmarked) [Example 137, (3-Hydroxy-3-methyl-pyrrolidin-1-yl)-(2-phenylethynyl-thiazol-5-yl)-methanone], the “maximum modulation (Emax)” value amounted to 38%.
As to `O=C(c1cnc(C#Cc2ccccc2)s1)N1CCC(F)(F)CC1` [Example 82, (4,4-Difluoro-piperidin-1-yl)-(2-phenylethynyl-thiazol-5-yl)-methanone], the “maximum modulation (Emax)” value was 150%.
On to `CC1CCN(C(=O)c2cnc(C#Cc3cccc(F)c3)s2)CC1` [Example 20], for which the “maximum modulation (Emax)” value is recorded as 110%.
Regarding `COC1CCCN(C(=O)c2cnc(C#Cc3ccccc3)s2)C1` (centres unmarked) [Example 119, (3-Methoxy-piperidin-1-yl)-(2-phenylethynyl-thiazol-5-yl)-methanone], the “maximum modulation (Emax)” value is listed as 46%.
The same measure, in the same setting: to `O=C(c1cnc(C#Cc2ccccc2)s1)N1CCCC(N2CCOCC2)CC1` (centres unmarked) [Example 148, (4-Morpholin-4-yl-azepan-1-yl)-(2-phenylethynyl-thiazol-5-yl)-methanone] belongs 100%; to `CN1CCN(C(=O)c2cnc(C#Cc3ccccc3)s2)CC1` [Example 42, (4-Methyl-piperazin-1-yl)-(2-phenylethynyl-thiazol-5-yl)-methanone], 160%; to `O=C(c1cnc(C#Cc2ccccc2)s1)N1CCCCCC1` [Example 58, Azepan-1-yl-(2-phenylethynyl-thiazol-5-yl)-methanone], 79%.
Consider `O=C(c1cnc(C#Cc2ccccc2)s1)C1CCCCC1` [Example 238, Cyclohexyl-(2-phenylethynyl-thiazol-5-yl)-methanone], for which the “maximum modulation (Emax)” value came out at 130%.
On to `O=C(c1cnc(C#Cc2ccc(F)cc2)s1)N1CCC(O)CC1` [Example 29, [2-(4-Fluoro-phenylethynyl)-thiazol-5-yl]-(4-hydroxy-piperidin-1-yl)-methanone], for which the “maximum modulation (Emax)” value came out at 100%.
Regarding `CN1CCN(C(=O)c2cnc(C#Cc3cccc(Cl)c3)s2)CC1` [Example 158, [2-(3-Chloro-phenylethynyl)-thiazol-5-yl]-(4-methyl-piperazin-1-yl)-methanone], the “maximum modulation (Emax)” value amounted to 94%.
On to `CCN1CCN(C(=O)c2cnc(C#Cc3cccc(Cl)c3)s2)CC1` [Example 159, [2-(3-Chloro-phenylethynyl)-thiazol-5-yl]-(4-ethyl-piperazin-1-yl)-methanone], for which the “maximum modulation (Emax)” value is given as 74%.
Take `O=C(c1cnc(C#Cc2ccccc2)s1)N1CC2CCC1C2` (centres unmarked) [Example 146, (2-Aza-bicyclo[2.2.1]hept-2-yl)-(2-phenylethynyl-thiazol-5-yl)-methanone]: the “maximum modulation (Emax)” value was 69%.
As for `O=C(c1cnc(C#Cc2ccccc2)s1)N1CC(N2CCOCC2)C1` [Example 132, (3-Morpholin-4-yl-azetidin-1-yl)-(2-phenylethynyl-thiazol-5-yl)-methanone], the “maximum modulation (Emax)” value turned out to be 40%.
Take `O=C(c1cnc(C#Cc2ccccc2)s1)N1CCN(c2ccccc2)CC1` [Example 41, (2-Phenylethynyl-thiazol-5-yl)-(4-phenyl-piperazin-1-yl)-methanone]: the “maximum modulation (Emax)” value amounted to 52%.
For `CC1(O)CCCN(C(=O)c2cnc(C#Cc3ccccc3)s2)CC1` (centres unmarked) [Example 151, (4-Hydroxy-4-methyl-azepan-1-yl)-(2-phenylethynyl-thiazol-5-yl)-methanone], the “maximum modulation (Emax)” value came to 61%.

The same test, now with this note: HEK 293 cells, increase in EC20 glutamate response.
For `COc1ccc(C#Cc2ncc(C(=O)N3CCCCC3)s2)cc1` [Example 192, [2-(4-Methoxy-phenylethynyl)-thiazol-5-yl]-piperidin-1-yl-methasone], the EC50 amounted to 2200 nM.
Take `CC(=O)c1cnc(C#Cc2ccccc2)s1` [Example 239, 1-(2-Phenylethynyl-thiazol-5-yl)-ethanone]: the EC50 was determined as 190 nM.
On to `O=C(c1cnc(C#Cc2cccc(Cl)c2)s1)N1CCC(O)CC1` [Example 38, [2-(3-Chloro-phenylethynyl)-thiazol-5-yl]-(4-hydroxy-piperidin-1-yl)-methanone], for which the EC50 was determined as 12 nM.
Consider `O=C(c1cnc(C#Cc2ccccc2Cl)s1)N1CCCCC1` [Example 68, [2-(2-Chloro-phenylethynyl)-thiazol-5-yl]-piperidin-1-yl-methanone], for which the EC50 came to 440 nM.
With `CN(C)Cc1cnc(C#Cc2ccccc2)s1` [Example 212, Dimethyl-(2-phenylethynyl-thiazol-5-ylmethyl)-amine], the EC50 amounted to 37 nM.
In the case of `O=C1CCN(C(=O)c2cnc(C#Cc3ccccc3)s2)C1` [Example 140, 1-(2-Phenylethynyl-thiazole-5-carbonyl)-pyrrolidin-3-one], the concentration for a half-maximal effect (EC50) is 110 nM.
For the compound `CC1CCN(C(=O)c2cnc(C#Cc3ccccc3F)s2)CC1` [Example 63, [2-(2-Fluoro-phenylethynyl)-thiazol-5-yl]-(4-methyl-piperidin-1-yl)-methanone], the EC50 was 20 nM.
On to `N#Cc1cccc(C#Cc2ncc(C(=O)N3CCCCC3)s2)c1` [Example 196, 3-[5-(Piperidine-1-carbonyl)-thiazol-2-ylethynyl]-benzonitrile], for which the EC50 was found to be 12 nM.
As to `O=C(c1cnc(C#CC2CCCCC2)s1)N1CCCCC1` [Example 200, (2-Cyclohexylethynyl-thiazol-5-yl)-piperidin-1-yl-methanone], the EC50 was 510 nM.
Regarding `OC(c1cnc(C#Cc2ccccc2)s1)C1CCCCC1` (centres unmarked) [Example 235, Cyclohexyl-(2-phenylethynyl-thiazol-5-yl)-methanol], the EC50 worked out at 53 nM.
As to `COC1CN(Cc2cnc(C#Cc3ccccc3)s2)C1` [Example 214, 5-(3-Methoxy-azetidin-1-ylmethyl)-2-phenylethynyl-thiazole], the EC50 was 760 nM.
For the compound `C(#Cc1ncc(CN2CCCC2)s1)c1ccccc1` [Example 207, 2-Phenylethynyl-5-pyrrolidin-1-ylmethyl-thiazole], the EC50 was determined as 220 nM.
Turning to `FC1(F)CCN(Cc2cnc(C#Cc3ccccc3)s2)CC1` [Example 223, 4,4-Difluoro-1-(2-phenylethynyl-thiazol-5-ylmethyl)-piperidine], the EC50 turned out to be 36 nM.
Turning to `CC1(O)CCN(C(=O)c2cnc(C#Cc3ccccc3)s2)C1` (centres unmarked) [Example 137, (3-Hydroxy-3-methyl-pyrrolidin-1-yl)-(2-phenylethynyl-thiazol-5-yl)-methanone], the EC50 amounted to 110 nM.
Regarding `O=C(c1cnc(C#Cc2ccccc2)s1)N1CCC(F)(F)CC1` [Example 82, (4,4-Difluoro-piperidin-1-yl)-(2-phenylethynyl-thiazol-5-yl)-methanone], the EC50 is 4.3 nM.
Still for that read-out and setting: the value for `CC1CCN(C(=O)c2cnc(C#Cc3cccc(F)c3)s2)CC1` [Example 20] was 0.71 nM; that for `COC1CCCN(C(=O)c2cnc(C#Cc3ccccc3)s2)C1` (centres unmarked) [Example 119, (3-Methoxy-piperidin-1-yl)-(2-phenylethynyl-thiazol-5-yl)-methanone] was 140 nM.
Still for that read-out and setting: the value for `O=C(c1cnc(C#Cc2ccccc2)s1)N1CCCC(N2CCOCC2)CC1` (centres unmarked) [Example 148, (4-Morpholin-4-yl-azepan-1-yl)-(2-phenylethynyl-thiazol-5-yl)-methanone] was 3400 nM.
`CN1CCN(C(=O)c2cnc(C#Cc3ccccc3)s2)CC1` [Example 42, (4-Methyl-piperazin-1-yl)-(2-phenylethynyl-thiazol-5-yl)-methanone]: the EC50 came to 530 nM.
For `O=C(c1cnc(C#Cc2ccccc2)s1)N1CCCCCC1` [Example 58, Azepan-1-yl-(2-phenylethynyl-thiazol-5-yl)-methanone], the EC50 worked out at 5.2 nM.
Regarding `O=C(c1cnc(C#Cc2ccccc2)s1)C1CCCCC1` [Example 238, Cyclohexyl-(2-phenylethynyl-thiazol-5-yl)-methanone], the EC50 is 110 nM.
On to `O=C(c1cnc(C#Cc2ccc(F)cc2)s1)N1CCC(O)CC1` [Example 29, [2-(4-Fluoro-phenylethynyl)-thiazol-5-yl]-(4-hydroxy-piperidin-1-yl)-methanone], for which the EC50 was determined as 2400 nM.
The same measure, in the same setting: to `CN1CCN(C(=O)c2cnc(C#Cc3cccc(Cl)c3)s2)CC1` [Example 158, [2-(3-Chloro-phenylethynyl)-thiazol-5-yl]-(4-methyl-piperazin-1-yl)-methanone] belongs 140 nM.
Turning to `CCN1CCN(C(=O)c2cnc(C#Cc3cccc(Cl)c3)s2)CC1` [Example 159, [2-(3-Chloro-phenylethynyl)-thiazol-5-yl]-(4-ethyl-piperazin-1-yl)-methanone], the EC50 is 510 nM.
On to `O=C(c1cnc(C#Cc2ccccc2)s1)N1CC2CCC1C2` (centres unmarked) [Example 146, (2-Aza-bicyclo[2.2.1]hept-2-yl)-(2-phenylethynyl-thiazol-5-yl)-methanone], for which the EC50 was 8.2 nM.
For the compound `O=C(c1cnc(C#Cc2ccccc2)s1)N1CC(N2CCOCC2)C1` [Example 132, (3-Morpholin-4-yl-azetidin-1-yl)-(2-phenylethynyl-thiazol-5-yl)-methanone], the EC50 came out at 230 nM.
As for `O=C(c1cnc(C#Cc2ccccc2)s1)N1CCN(c2ccccc2)CC1` [Example 41, (2-Phenylethynyl-thiazol-5-yl)-(4-phenyl-piperazin-1-yl)-methanone], the EC50 is 360 nM.
On the same count and under the same terms, to `CC1(O)CCCN(C(=O)c2cnc(C#Cc3ccccc3)s2)CC1` (centres unmarked) [Example 151, (4-Hydroxy-4-methyl-azepan-1-yl)-(2-phenylethynyl-thiazol-5-yl)-methanone] belongs 73 nM.
